# Results published in patent US8691850B2, “Substituted phenylaminothiazoles and use thereof” (Bayer Intellectual Property GmbH, priority 2004, dated 2014).
smiles,measurement,value
"N#Cc1c(N)nc(SCc2csc(Nc3cccc(Cl)c3)n2)c(C#N)c1-c1ccc(OCC(O)CO)cc1 (stereo not shown) [Example 1, 2-Amino-6-[({2-[(3-chlorophenyl)amino]-1,3-thiazol-4-yl}methyl)thio]-4-[4-(2,3-dihydroxypropoxy)phenyl]pyridine-3,5-dicarbonitrile]",melting point,192 to 194 °C
